Reference: US8710003B2, “Treatment of diabetes with milk protein hydrolysate” (Nestec S.A., priority 1999, dated 2014)

Test system: NCI-H716 cells
Assay: Release of active GLP-1 by NCI-H716 cells
Assay type: cell-based, human
Conditions: alpha-lactose dose equivalent to that contained in the wheys, 2 h incubation, active GLP-1 only
Method: Cells were grown in suspension at 37° C., 5% CO2. The culture medium consisted of RPMI 1640 supplemented with 10% FBS, 2 mM L-glutamine, 100 IU/ml penicillin and 100 μg/ml streptomycin. […] Cells were, therefore, seeded in dishes coated with […] ® (Becton Dickinson, Bedford, Mass., USA) two days before experiments.
Two days before experiments, 1×10^6 cells were seeded in 12 well culture plates coated with […] ®. On the day of the experiment, the supernatant was replaced by Krebs-Ringer Bicarbonate Buffer (KRB) containing 0.2% wt/vol BSA with or without CGMP. Cells were incubated for 2 h at 37° C. Supernatants were collected with the addition of 50 μg/ml PMSF and frozen at −80° C. for subsequent analysis by radioimmunoassay (RIA) of GLP-1. Cells were scraped with a rubber policeman and homogenization buffer [1 N HCl containing 5% (v/v) HCOOH, 1% (v/v) trifluoroacetic acid (TFA), and 1% (v/v) NaCl] and sonicated for 15 s. […] The intraassay coefficient of variance was 2.28%.
Here, a kit was used that only measures the active form of GLP-1, i.e., GLP-1 (7-37) or GLP-1 (7-36 amide), but not the degraded form, GLP-1 (9-36 amide), as was included in the data for FIGS. 1-3.

## OC[C@H]1O[C@@H](O[C@H]2[C@H](O)[C@@H](O)[C@@H](O)O[C@@H]2CO)[C@H](O)[C@@H](O)[C@H]1O [alpha-lactose]
  GLP-1 secretion compared to the control: 144±32%
